The logP is a log measure of how a compound divides between an organic and an aqueous phase. A higher logP goes with a more lipophilic compound. One may read the solubility as the concentration that dissolves in the medium under given conditions. Low readings indicate a poorly soluble substance, high ones a readily soluble substance. As a reminder, the IC50 is the concentration at which inhibition is half-maximal. In general, bioavailability refers to dose-corrected exposure relative to a reference, in per cent. A word on the AUC(0-t): it is exposure summed from dosing to a finite time, without extrapolation to infinity. As a reminder, the clearance is a measure of how efficiently the substance is removed, as volume per time. Read a low clearance as inefficient removal. For orientation: half-life means the time in which the quantity being followed falls by half. The Cmax is the maximum level reached in the sampled fluid or tissue.

The nature of data set [1]: Lipophilicity, log P of the compound. The class given is physicochemical. Conditions: octanol/water.
Data set [2] in a line: Aqueous solubility in pH 7.4 buffer. The class given is physicochemical.
The target of data set [3] is Voltage-gated inwardly rectifying potassium channel KCNH2 (Homo sapiens, UniProt Q12809). The data set is described as follows: Inhibition of human ERG.
Chain of Voltage-gated inwardly rectifying potassium channel KCNH2 (Q12809 whole entry): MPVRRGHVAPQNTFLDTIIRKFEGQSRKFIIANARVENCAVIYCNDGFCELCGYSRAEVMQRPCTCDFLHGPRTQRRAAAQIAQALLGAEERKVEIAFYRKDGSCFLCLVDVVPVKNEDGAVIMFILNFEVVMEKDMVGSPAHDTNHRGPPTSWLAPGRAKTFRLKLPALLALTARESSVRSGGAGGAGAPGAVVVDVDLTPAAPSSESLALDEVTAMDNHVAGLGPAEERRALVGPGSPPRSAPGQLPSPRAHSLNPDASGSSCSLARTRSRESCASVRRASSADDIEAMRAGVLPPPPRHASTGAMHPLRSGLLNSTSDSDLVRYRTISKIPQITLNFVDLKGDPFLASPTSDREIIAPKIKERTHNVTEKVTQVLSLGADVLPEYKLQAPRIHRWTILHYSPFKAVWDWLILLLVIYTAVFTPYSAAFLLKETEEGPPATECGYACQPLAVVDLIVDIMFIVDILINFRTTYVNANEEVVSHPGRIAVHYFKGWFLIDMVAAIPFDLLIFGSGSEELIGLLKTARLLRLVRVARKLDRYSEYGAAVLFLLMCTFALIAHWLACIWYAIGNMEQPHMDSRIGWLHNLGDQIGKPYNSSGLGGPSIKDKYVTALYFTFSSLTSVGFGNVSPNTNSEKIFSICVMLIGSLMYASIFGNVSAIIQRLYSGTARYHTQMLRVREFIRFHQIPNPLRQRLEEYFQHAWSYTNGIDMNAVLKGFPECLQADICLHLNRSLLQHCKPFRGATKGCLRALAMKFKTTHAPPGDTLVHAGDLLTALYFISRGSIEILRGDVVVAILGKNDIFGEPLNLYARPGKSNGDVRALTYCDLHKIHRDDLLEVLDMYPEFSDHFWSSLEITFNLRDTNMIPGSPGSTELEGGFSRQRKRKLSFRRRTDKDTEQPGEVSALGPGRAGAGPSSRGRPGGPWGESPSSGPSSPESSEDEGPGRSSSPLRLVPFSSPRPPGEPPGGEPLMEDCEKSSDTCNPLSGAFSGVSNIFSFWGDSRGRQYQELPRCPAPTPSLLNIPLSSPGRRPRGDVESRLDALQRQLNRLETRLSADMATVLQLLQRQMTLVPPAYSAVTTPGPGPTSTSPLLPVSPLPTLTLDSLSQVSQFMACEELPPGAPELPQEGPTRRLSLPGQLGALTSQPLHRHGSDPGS
For data set [4], the target named is T1, RAC-alpha serine/threonine-protein kinase (Homo sapiens, UniProt P31749). The data set is described as follows: Inhibition of human recombinant AKT1 expressed in insect cells incubated for 60 mins measured at apparent ATP Km level by kinase ADP-FP assay.
T1 sequence (P31749 whole entry): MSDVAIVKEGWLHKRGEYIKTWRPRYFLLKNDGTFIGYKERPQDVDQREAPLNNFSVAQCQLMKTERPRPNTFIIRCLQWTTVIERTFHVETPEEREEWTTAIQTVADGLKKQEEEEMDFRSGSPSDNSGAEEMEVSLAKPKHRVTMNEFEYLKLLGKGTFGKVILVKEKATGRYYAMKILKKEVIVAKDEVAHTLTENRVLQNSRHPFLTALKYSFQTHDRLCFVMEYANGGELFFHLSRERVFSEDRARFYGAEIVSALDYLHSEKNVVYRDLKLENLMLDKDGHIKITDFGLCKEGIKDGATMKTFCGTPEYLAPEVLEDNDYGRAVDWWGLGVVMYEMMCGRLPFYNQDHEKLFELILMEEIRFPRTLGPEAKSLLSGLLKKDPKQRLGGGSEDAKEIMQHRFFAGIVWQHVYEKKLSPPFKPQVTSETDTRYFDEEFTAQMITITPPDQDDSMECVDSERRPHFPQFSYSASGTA
The target in data set [5] is Ribosomal protein S6 kinase beta-1 (Homo sapiens, UniProt P23443). The data set is described as follows: Inhibition of human p70S6K measured at apparent ATP Km level.
Chain of Ribosomal protein S6 kinase beta-1 (P23443 whole entry, the tested form may be a part): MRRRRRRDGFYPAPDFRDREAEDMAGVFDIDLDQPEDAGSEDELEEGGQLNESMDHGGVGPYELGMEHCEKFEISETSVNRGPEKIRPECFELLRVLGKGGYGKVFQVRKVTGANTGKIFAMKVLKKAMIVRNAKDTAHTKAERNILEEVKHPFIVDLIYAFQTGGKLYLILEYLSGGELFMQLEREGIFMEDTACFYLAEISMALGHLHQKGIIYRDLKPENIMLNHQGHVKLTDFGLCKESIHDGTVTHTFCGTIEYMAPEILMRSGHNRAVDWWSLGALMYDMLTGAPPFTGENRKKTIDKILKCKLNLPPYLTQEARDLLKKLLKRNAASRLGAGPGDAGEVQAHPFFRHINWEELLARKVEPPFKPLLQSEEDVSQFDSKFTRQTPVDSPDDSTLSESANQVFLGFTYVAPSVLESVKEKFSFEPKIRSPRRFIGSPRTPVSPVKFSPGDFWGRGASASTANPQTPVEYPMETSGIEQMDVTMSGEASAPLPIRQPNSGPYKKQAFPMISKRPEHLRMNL
In data set [6] the target is Rho-associated protein kinase 2 (Homo sapiens, UniProt O75116). The data set can be described thus: Inhibition of histidine-tagged human recombinant ROCK2 (11 to 552 residues) expressed in insect cells using RFARKGSLRQKNV substrate incubated for 60 mins measured at apparent ATP Km level by kinase ADP-FP assay.
Chain of Rho-associated protein kinase 2 (O75116 whole entry, the tested form may be a part): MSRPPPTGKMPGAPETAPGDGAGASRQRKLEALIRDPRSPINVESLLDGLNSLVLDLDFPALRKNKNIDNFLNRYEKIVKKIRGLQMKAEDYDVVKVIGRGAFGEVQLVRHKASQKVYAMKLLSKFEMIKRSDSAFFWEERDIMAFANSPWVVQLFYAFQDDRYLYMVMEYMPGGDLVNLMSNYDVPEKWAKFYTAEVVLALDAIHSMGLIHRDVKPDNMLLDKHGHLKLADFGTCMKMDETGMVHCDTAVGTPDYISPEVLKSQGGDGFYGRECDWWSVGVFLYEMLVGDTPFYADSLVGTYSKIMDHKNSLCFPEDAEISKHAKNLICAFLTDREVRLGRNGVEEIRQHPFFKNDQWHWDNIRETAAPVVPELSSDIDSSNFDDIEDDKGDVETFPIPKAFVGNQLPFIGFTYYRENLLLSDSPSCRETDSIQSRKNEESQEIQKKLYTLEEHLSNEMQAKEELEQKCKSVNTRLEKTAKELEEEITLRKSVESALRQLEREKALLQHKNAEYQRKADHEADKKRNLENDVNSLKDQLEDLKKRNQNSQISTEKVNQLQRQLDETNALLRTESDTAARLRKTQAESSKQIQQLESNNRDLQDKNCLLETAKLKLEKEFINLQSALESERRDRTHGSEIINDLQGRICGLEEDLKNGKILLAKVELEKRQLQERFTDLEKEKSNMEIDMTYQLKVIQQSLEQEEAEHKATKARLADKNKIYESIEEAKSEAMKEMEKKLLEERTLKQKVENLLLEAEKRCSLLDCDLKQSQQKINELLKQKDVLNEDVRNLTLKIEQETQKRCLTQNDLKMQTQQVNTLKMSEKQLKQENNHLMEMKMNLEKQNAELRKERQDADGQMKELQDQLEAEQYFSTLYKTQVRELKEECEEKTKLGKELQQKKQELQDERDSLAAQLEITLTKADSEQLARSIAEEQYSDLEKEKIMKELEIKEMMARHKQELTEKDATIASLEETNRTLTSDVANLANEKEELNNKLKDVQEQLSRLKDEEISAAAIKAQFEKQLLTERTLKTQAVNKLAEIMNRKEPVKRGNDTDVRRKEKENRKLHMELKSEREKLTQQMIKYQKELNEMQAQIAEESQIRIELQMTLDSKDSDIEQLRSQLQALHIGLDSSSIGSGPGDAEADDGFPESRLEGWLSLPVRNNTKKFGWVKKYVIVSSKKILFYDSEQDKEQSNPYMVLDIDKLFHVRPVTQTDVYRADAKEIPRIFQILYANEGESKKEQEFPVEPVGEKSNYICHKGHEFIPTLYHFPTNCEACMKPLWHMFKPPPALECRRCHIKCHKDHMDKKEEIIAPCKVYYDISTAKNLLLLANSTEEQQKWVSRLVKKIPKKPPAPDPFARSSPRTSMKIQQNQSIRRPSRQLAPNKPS
Data set [7] in a line: Inhibition of human PKA measured at apparent ATP Km level.
In data set [8] the target is Protein kinase C beta type (Homo sapiens, UniProt P05771). The data set can be described thus: Inhibition of human PKCbeta2 measured at apparent ATP Km level.
Chain of Protein kinase C beta type (P05771 whole entry): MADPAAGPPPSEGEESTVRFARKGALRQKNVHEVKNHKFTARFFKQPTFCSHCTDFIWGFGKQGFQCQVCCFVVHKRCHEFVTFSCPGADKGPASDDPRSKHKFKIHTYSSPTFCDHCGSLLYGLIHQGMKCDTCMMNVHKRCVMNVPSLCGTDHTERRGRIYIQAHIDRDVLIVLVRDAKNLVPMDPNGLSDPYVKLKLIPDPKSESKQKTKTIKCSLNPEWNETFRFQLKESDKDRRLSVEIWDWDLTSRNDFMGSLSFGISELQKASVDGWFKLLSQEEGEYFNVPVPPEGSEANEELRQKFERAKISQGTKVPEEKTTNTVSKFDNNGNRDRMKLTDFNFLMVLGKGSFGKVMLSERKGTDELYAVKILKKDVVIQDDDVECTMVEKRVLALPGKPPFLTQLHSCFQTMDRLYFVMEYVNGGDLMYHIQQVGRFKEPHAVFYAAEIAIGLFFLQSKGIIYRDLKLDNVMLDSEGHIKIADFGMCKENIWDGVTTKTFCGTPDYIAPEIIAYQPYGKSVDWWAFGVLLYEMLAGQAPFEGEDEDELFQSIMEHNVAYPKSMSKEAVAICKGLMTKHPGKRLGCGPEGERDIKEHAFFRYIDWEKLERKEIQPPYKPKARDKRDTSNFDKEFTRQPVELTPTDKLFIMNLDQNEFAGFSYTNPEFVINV
The target in data set [9] is Ribosomal protein S6 kinase alpha-1 (Homo sapiens, UniProt Q15418). The data set is described as follows: Inhibition of human RSK1 measured at apparent ATP Km level.
Chain of Ribosomal protein S6 kinase alpha-1 (Q15418 whole entry): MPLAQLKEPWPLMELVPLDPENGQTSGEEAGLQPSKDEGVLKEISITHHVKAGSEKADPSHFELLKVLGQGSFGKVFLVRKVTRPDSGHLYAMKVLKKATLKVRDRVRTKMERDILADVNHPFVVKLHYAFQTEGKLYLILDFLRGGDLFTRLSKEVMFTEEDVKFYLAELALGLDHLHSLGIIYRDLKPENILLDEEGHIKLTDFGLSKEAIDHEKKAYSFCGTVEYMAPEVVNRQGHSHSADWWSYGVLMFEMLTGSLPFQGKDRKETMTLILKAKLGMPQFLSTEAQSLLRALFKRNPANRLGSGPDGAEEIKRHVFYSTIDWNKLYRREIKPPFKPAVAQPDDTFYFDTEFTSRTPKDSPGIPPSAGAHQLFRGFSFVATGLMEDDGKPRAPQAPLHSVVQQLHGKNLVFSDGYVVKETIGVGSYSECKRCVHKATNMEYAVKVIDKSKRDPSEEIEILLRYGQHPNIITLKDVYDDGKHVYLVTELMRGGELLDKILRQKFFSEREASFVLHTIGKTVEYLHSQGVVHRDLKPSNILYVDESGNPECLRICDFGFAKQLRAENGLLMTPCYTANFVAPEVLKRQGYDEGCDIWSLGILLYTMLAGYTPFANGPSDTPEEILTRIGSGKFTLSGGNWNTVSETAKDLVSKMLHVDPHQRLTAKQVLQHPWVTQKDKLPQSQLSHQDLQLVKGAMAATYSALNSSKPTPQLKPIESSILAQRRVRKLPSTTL
Data set [10] concerns the target T1, RAC-alpha serine/threonine-protein kinase. The data set is described as follows: Inhibition of AKT1 in human U87MG cells assessed as reduction in GSK3beta Ser9 phosphorylation incubated for 1 hr by alpha screen Surefire assay. The class given is cell-based. For orientation: In Alpha technology, singlet oxygen from a donor bead excites a nearby acceptor bead.

The species named for a further data set is Homo sapiens. The data set can be described thus: Selectivity index, ratio of IC50 for human recombinant ROCK2 (11 to 552 residues) expressed in insect cells to IC50 for human recombinant AKT1 expressed in insect cells.
A short description of data set [11]: Oral bioavailability in Sprague-Dawley rat at 5 mg/kg by LC-MS/MS method. Type of data set: ADME, organism-based. Conditions: in vivo.
Data set [12] in a line: AUC (0 to 24 hrs) in Sprague-Dawley rat at 5 mg/kg, po by LC-MS/MS method. To be noted: in vivo. Further details: dose 5 mg/kg, time < 24 hr, route oral. The class given is ADME, organism-based.
Data set [13] is described as follows: Clearance in Sprague-Dawley rat at 10 mg/kg, iv by LC-MS/MS method. Type of data set: ADME, organism-based. To be noted: in vivo.
Data set [14] relates to Rattus norvegicus. The data set is described as follows: Intrinsic unbound clearance in Sprague-Dawley rat at 10 mg/kg, iv by LC-MS/MS method. The class given is ADME, organism-based. To be noted: in vivo.
The nature of data set [15]: Volume of distribution at steady state in Sprague-Dawley rat at 10 mg/kg, iv or 5 mg/kg, po by LC-MS/MS method. Type of data set: ADME, organism-based. To be noted: in vivo, read-out: Vdss.
The nature of data set [16]: Half life in Sprague-Dawley rat at 10 mg/kg, iv by LC-MS/MS method. Type of data set: ADME, organism-based. Conditions: in vivo.
For the next data set, the system named is Mus musculus. The data set is described as follows: Ratio of AUC (0 to 24 hrs) in P-gp and BCRP knockout mouse at 2.5 mg/kg, po to AUC (0 to 24 hrs) in wild type mouse at 2.5 mg/kg, po. The class given is ADME, organism-based. Conditions: in vivo.
Data set [17] can be described thus: AUC (0 to 24 hrs) in wild type mouse at 2.5 mg/kg, po by LC-MS/MS method. Type of data set: ADME, organism-based. Set-up: time < 24 hr, dose 2.5 mg/kg, route oral. To be noted: in vivo.
Data set [18] is described as follows: AUC (0 to 24 hrs) in P-gp and BCRP knockout mouse at 2.5 mg/kg, po by LC-MS/MS method. Further details: time < 24 hr, dose 2.5 mg/kg, route oral. Type of data set: ADME, organism-based. Conditions: in vivo.
Data set [19] is described as follows: Cmax in wild type mouse at 2.5 mg/kg, po by LC-MS/MS method. The class given is ADME, organism-based. Set-up: dose 2.5 mg/kg, route oral. Conditions: in vivo.
A short description of data set [20]: Cmax in P-gp and BCRP knockout mouse at 2.5 mg/kg, po by LC-MS/MS method. To be noted: in vivo. The class given is ADME, organism-based. Set-up: dose 2.5 mg/kg, route oral.
The subject of data set [21] is U-87 MG. The data set can be described thus: Antitumor activity against human U87MG cells xenografted in rat assessed as inhibition of tumor growth at 25 to 50 mg/kg, po qd for 4 weeks. To be noted: U-87MG ATCC. The class given is functional, organism-based. Background: In xenograft studies the graft and the host belong to different species.
The test system of data set [22] is U-87 MG. The data set is described as follows: Antitumor activity against human U87MG cells xenografted in rat assessed as inhibition of tumor growth at 25 mg/kg, po bid for 4 weeks. Conditions: U-87MG ATCC. The class given is functional, organism-based.
In data set [23] the test system is Rattus norvegicus. The data set can be described thus: Toxicity in human U87MG cells xenografted rat assessed as induction of body weight loss at 25 to 50 mg/kg, po qd for 4 weeks. Type of data set: organism-based. Conditions: in vivo, 672 h.
For data set [24], the system named is Rattus norvegicus. The data set is described as follows: Toxicity in human U87MG cells xenografted rat assessed as induction of body weight loss at 25 mg/kg, po bid for 4 weeks. To be noted: in vivo, 672 h. Type of data set: organism-based.

SMILES strings stand for the structures. Values after ≈ are worked out from the molar mass of the structure shown. Active and inactive are the calls of the source. The calls are words filed in the database; no cut-off is given here.

Regarding `C[C@@H]1CC(=O)Nc2ncnc(N3CCC(c4nc(C5CCOCC5)cn4CCN4CCCC4)CC3)c21`, in [1], the logP is 0.95. Also, the solubility in data set [2] was more than 2000 µg/mL. The same compound returned an INH in data set [3] of more than 100 µM. Besides, the half-inhibitory concentration (IC50) in [4] was 4 nM; in data set [5], 1900 nM; in data set [6], more than 20000 nM; in data set [7], 412 nM; in data set [8], 20000 nM; in data set [9], 699 nM. In data set [10], the IC50 was determined as 230 nM. In addition, in the data set filed under Homo sapiens, the Ratio IC50 was more than 1000. Besides, the bioavailability in data set [11] amounted to 14%. Also, the exposure AUC(0-t) at 24 h in data set [12] came to 173 ng·h/mL; in data set [17], 108 ng·h/mL; in [18], 501 ng·h/mL. Further, the clearance in [13] came to 64 mL/min/kg. The compound further gave a CL free in the data set on Rattus norvegicus [14] of 85 mL/min/kg. The Vd in data set [15] was 13.8 L/kg. This compound also showed a half-life in [16] of 8.6 h. The Ratio with Mus musculus was determined as 5. Further, the values for the maximum concentration (Cmax) in data set [19] and in data set [20] were 33 ng/mL and 189 ng/mL, respectively.

The compound `C[C@@H]1CC(=O)Nc2ncnc(N3CCC(c4nc(C(F)(F)F)cn4CCN4CCCC4)CC3)c21` yielded a lipophilicity (logP) in data set [1] of 1.66. Further, in [2], the solubility stood at 1860 µg/mL (≈ 3900 µM). Further, the INH in data set [3] is more than 100 µM. The IC50 in [4] is 11 nM; in data set [5] it was 876 nM; in data set [6], more than 20000 nM; in data set [7], 124 nM; in data set [8] it was 16300 nM; in data set [9], 272 nM. The half-maximal inhibitory concentration (IC50) in data set [10] is 2460 nM. The Ratio IC50 in the data set filed under Homo sapiens was more than 1000. In [11], this compound returned a bioavailability of 64%. In data set [12], this compound had an AUC(0-t) at 24 h of 24100 ng·h/mL. In data set [13], the clearance was determined as 2.18 mL/min/kg. Besides, the CL free with Rattus norvegicus [14] was found to be 66 mL/min/kg. Further, in data set [15], the Vd amounted to 0.65 L/kg. Moreover, in [16], the half-life is 3 h.

For the compound `Cn1cc(-c2ccc(F)c(C(F)(F)F)c2)nc1C1CCN(c2ncnc3[nH]ncc23)CC1` [LY-2584702], the IC50 in data set [5] came out at 4 nM.

As to `C[C@@H]1CC(=O)Nc2ncnc(N3CCC(c4nc(CCC(F)(F)F)cn4CCN4CCCC4)CC3)c21`, the log partition coefficient (logP) in data set [1] was 2.39. The compound also had a solubility in data set [2] of 990 µg/mL (≈ 1960 µM). The compound further gave an INH in data set [3] of 18.5 µM. The IC50 in data set [4] is 5 nM; in data set [5], 399 nM; in data set [6], more than 20000 nM; in [7], 84 nM; in [8] it was 3980 nM; in [9], 568 nM. For the same compound, the concentration for half-maximal inhibition (IC50) in data set [10] was 92 nM. Moreover, the Ratio IC50 in the data set filed under Homo sapiens was more than 1000. Besides, the bioavailability in data set [11] came out at 55%. Moreover, the AUC(0-t) at 24 h in [12] worked out at 638 ng·h/mL; in data set [17], 290 ng·h/mL; in data set [18], 359 ng·h/mL. Also, in data set [13], the clearance came out at 74 mL/min/kg. In the data set with Rattus norvegicus [14], this compound registered a CL free of 43 mL/min/kg. For the same compound, in data set [15], the Vd amounted to 11.6 L/kg. Further, the half-life in data set [16] is 2.3 h. Besides, the peak concentration (Cmax) in [19] is 76 ng/mL; in data set [20] it was 109 ng/mL. In the data set on U-87 MG [21], the TGI entry was “Dose-dependent effect”. Besides, the TGI result in the data set on U-87 MG [22] is “Active”. Moreover, the Activity entry with Rattus norvegicus [23] and in the data set on Rattus norvegicus [24] was “Non-Toxic” throughout.

Consider `C[C@@H]1CC(=O)Nc2ncnc(N3CCC(c4nc(-c5ccc(F)c(C(F)(F)F)c5)cn4CCN4CCCC4)CC3)c21`, for which, in data set [1], the lipophilicity (logP) was 4.84. In data set [2], this compound registered a solubility of 35 µg/mL (≈ 61.2 µM). Besides, the INH in data set [3] turned out to be 1.74 µM. The IC50 in data set [4] was 3 nM; in [5] it was 35 nM; in [6], more than 20000 nM; in data set [7], 653 nM; in data set [8], 36 nM; in data set [9] it was 20 nM. The concentration for half-maximal inhibition (IC50) in data set [10] stood at 39 nM. Also, the Ratio IC50 in the data set listed under Homo sapiens is more than 1000.
